# How the values were obtained:
# Assay type in all cases: functional
# [1] = biological target: Serine protease 1 (Homo sapiens) (UniProt P07477); assay: Compound was evaluated for in vitro inhibition of trypsin induced proteolysis at 0.1 mM concentration
# [2] = Interaction percent with DPPH after 60 minutes was determined at 0.5 mM concentration
# [3] = Interaction percent with DPPH after 20 minutes was determined at 0.1 mM concentration
# [4] = biological target: Serine protease 1 (Homo sapiens) (UniProt P07477); assay: Compound was evaluated for in vitro inhibition of trypsin acting as esterase at 1 mM concentration
# [5] = biological target: Chymotrypsinogen B (Homo sapiens) (UniProt P17538); assay: Compound was evaluated for in vitro inhibition of chymotrypsinogen induced proteolysis at 1 mM concentration
# Chain of Chymotrypsinogen B (Homo sapiens) (P17538 34-164 limits assumed, other chains not shown): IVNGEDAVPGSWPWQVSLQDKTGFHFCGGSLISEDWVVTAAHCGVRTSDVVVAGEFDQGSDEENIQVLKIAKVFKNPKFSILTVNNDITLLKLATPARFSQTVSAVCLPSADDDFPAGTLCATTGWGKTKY
# Chain of Chymotrypsinogen B (Homo sapiens) (P17538 167-263 limits assumed, other chains not shown): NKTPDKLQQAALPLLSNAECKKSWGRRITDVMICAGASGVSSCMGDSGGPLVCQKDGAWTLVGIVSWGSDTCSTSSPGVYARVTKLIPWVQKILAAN
# [6] = Competition percent of compound with DMSO for hydroxyl radical was determined at 0.1 mM concentration
# [7] = biological target: Chymotrypsinogen B (Homo sapiens) (UniProt P17538); assay: Compound was evaluated for in vitro inhibition of chymotrypsinogen acting as esterase at 0.1 mM concentration
# [8] = Compound was evaluated for percent inhibition of carrageenan induced rat paw edema at 0.005 mmol/kg
# [9] = biological target: Chymotrypsinogen B (Homo sapiens) (UniProt P17538); assay: Compound was evaluated for in vitro inhibition of chymotrypsinogen acting as esterase at 1 mM concentration
# [10] = biological target: Chymotrypsinogen B (Homo sapiens) (UniProt P17538); assay: Compound was evaluated for in vitro inhibition of chymotrypsinogen induced proteolysis at 0.1 mM concentration
# [11] = biological target: Serine protease 1 (Homo sapiens) (UniProt P07477); assay: Compound was evaluated for in vitro inhibition of trypsin acting as esterase at 0.1 mM concentration
# [12] = Interaction percent with DPPH after 60 minutes was determined at 0.1 mM concentration
# [13] = Interaction percent with DPPH after 20 minutes was determined at 0.5 mM concentration
# [14] = biological target: T1, Seed linoleate 13S-lipoxygenase-1 (Glycine max) (UniProt P08170); assay: Compound was evaluated for in vitro inhibition of soybean lipoxygenase at 1 mM concentration; no action
# T1 sequence (whole entry): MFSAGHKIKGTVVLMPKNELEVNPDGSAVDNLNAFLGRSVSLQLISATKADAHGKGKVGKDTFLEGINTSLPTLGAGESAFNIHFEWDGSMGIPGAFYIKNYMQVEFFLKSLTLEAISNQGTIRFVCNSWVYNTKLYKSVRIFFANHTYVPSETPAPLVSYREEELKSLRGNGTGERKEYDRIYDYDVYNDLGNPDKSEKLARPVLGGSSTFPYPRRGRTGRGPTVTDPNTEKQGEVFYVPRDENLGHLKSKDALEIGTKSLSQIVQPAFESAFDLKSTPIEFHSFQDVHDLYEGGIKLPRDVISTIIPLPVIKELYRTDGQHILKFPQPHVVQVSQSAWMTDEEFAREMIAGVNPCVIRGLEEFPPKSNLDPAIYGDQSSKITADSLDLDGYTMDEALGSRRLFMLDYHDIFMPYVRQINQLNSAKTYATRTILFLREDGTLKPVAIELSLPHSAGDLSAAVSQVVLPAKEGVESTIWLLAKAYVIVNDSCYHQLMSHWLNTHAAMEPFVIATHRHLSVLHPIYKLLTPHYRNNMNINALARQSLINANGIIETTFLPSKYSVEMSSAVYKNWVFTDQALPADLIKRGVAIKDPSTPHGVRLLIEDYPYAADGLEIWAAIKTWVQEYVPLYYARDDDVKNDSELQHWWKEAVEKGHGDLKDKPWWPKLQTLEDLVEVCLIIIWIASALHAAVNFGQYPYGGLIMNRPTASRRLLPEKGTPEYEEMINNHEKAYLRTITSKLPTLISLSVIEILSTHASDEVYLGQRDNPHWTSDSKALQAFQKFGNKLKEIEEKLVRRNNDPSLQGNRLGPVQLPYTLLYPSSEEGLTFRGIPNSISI
# [15] = biological target: Serine protease 1 (Homo sapiens) (UniProt P07477); assay: Compound was evaluated for in vitro inhibition of trypsin induced proteolysis at 1 mM concentration
# Chain of Serine protease 1 (Homo sapiens) (P07477 whole entry): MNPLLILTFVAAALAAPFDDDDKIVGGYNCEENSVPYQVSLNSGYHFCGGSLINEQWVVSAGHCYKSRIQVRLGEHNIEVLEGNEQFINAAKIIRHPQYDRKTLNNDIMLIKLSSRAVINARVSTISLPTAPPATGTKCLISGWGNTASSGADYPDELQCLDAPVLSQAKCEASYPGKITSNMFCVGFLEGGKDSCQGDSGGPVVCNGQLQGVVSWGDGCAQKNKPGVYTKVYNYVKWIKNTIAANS
compound,measurement,setting,value
CC(=O)CC(c1ccccc1)c1c(O)c2ccccc2oc1=O (stereo not given) [WARFARIN],inhibition,[1],92.5%
same,RA,[2],12.8%
same,RA,[3],9.2%
same,inhibition,[4],97.5%
same,inhibition,[5],86.7%
same,Competition,[6],95.8%
same,inhibition,[7],18.4%
same,inhibition in vivo at 5 µmol/kg,[8],41%
same,inhibition,[9],98.2%
same,inhibition,[10],62.4%
same,inhibition,[11],21.2%
same,RA,[12],24%
same,RA,[13],10.3%
same,inhibition,[14],No action
same,inhibition,[15],94.8%

# From ChEMBL document CHEMBL1147420, “Synthesis and biological evaluation of novel coumarin derivatives with a 7-azomethine linkage” (2004)
